{"source": "patent US20240350475A1", "about": "“TR[…] CARD[…] BY SARS-COV-2 SPIKE PROTEIN UNDER OBESITY” (priority 2023, published 2024)", "key": {"[1]": {"test_system": "HEK_Spike cells", "assay": "Palmitic acid (PA)-induced lipotoxicity assay in Spike cells, with or without inhibitors (PI/Hoechst cell viability)", "format": "cell-based, Human", "settings": "for PA-induced Spike protein-exaggerated lipotoxicity (necrosis, cell viability): Spike cells, then 750 M PA 24 h, DMEM 5% FBS", "method": "(§1) The HEK293, HEK_pcDNA, and HEK_Spike cells were cultured in a 96-well plate and reached to 80% confluence on the next day before treatment. The cells were kept in DMEM medium with 5% FBS during the entire treatment procedure. The cells were treated with PA (free BSA) in various concentrations from 250 to 1000 M for 24, 48, or 72 h.\n(§2) For treatment control groups, the cells were treated by the same concentrations of BSA in parallel. For the inhibitory assay, the cells were pre-incubated by autophagic inhibitors (125 M trigonelline (TRG), or 10 M Wortmannin), or a ferropotosis inhibitor (ferrostatin, 2 M), or an […] (necrostatin-1, 10 M) in DMEM medium with 5% FBS for 2 h, followed by 750 M PA treatment for 24 h. The cells were then co-stained by Propidium Iodide (PI) and Hoechst 33342 NucBlue Live Cell Stain dye (ThermoFisher) to show the dead and live cells. The dyes were excited at 535 nm and 405 nm, respectively. TRG may be provided over a range of concentration such as 50 to 300 M, 60 to 290, 70 to 280, 80 to 270, 90 to 260, 100 to 250, 110 to 240, 120 to 230, 130 to 220, 140 to 210, 150 to 200, 160 to 190, 170 to 180, as well as sub ranges such as from 100M to 200 M, 125M to 175 M, etc., also include individual concentrations, such as 125M, 150 M, 175M, etc. Wortmannin may be provided over a range of concentrations from 5 to 100, 10 to 90, 15 to 80, 20 to 70, 25 to 60, 30 to 50 M, etc., including subranges and individual concentrations within these ranges.\nImages were acquired and cell viability analyses were performed using an ImagXpress Pico Automated system."}, "[2]": {"test_system": "HEK293 and HEK_pcDNA cells", "assay": "Palmitic acid (PA)-induced lipotoxicity assay in control cells", "format": "cell-based, Human", "settings": "PA overload; HEK293 (mock) and pcDNA cells; DMEM 5% FBS", "method": "as §1\nas §2, with “Wortmannin may be provided over a range of concentrations from 5 to 100, 10 to 90, 15 to 80, 20 to 70, 25 to 60, 30 to 50 M, etc., including subranges and individual concentrations within these ranges.” left out"}, "[3]": {"test_system": "H9C2 cells"}, "[4]": {"test_system": "Human dermal microvascular ECs (hDMVECs)", "format": "cell-based"}, "[5]": {"test_system": "H9C2 cells", "assay": "Spike-exosome induced mitochondrial morphology change in H9C2 cells (MitoTracker, confocal)", "format": "cell-based", "settings": "spike-exo 150 μg exosomal proteins in 1 ml medium plus TRG 125 μM, 5 days"}}, "note": "“Also recorded” adds a separate entry of the source."}
{"smiles": "CCCCCCCCCCCCCCCC(=O)O", "note": "[PA, Palmitic acid]", "values": [{"measurement": "effect of PA on the Spike cells", "setting": "[1]; 500 M and 250 M PA, after 72 h treatment", "result": "modest or mild effect"}, {"measurement": "PA-induced cell death (lipotoxicity)", "setting": "[1]; Spike cells versus mock and pcDNA cells, PA 750 or 1000 M, 24 to 72 h", "result": "significantly augmented"}, {"measurement": "PA-induced cell death (lipotoxicity)", "setting": "[2]", "result": "induced cell death"}]}
{"smiles": "C[n+]1cccc(C(=O)[O-])c1", "note": "[TRG, Trigonelline]", "values": [{"measurement": "PA-induced Spike protein-exaggerated lipotoxicity (cell viability)", "setting": "[3]", "result": "could be reversed"}, {"measurement": "PA-induced Spike protein-exaggerated lipotoxicity (necrosis, cell viability)", "setting": "[1]; pre-incubated with 125 M TRG 2 h", "result": "can attenuate; also recorded: can be suppressed; also recorded: significantly mitigated"}, {"measurement": "PA-induced Spike protein-exaggerated lipotoxicity (necrosis, cell viability)", "setting": "[1]; pre-incubated with 125 M TRG 2 h, listed as trigonelline", "result": "could be attenuated"}, {"measurement": "cellular ROS levels", "setting": "[4]", "result": "attenuated"}, {"measurement": "density of mitochondria decreased by Spike-EVs plus LDL-c", "setting": "[4]", "result": "could restore"}, {"measurement": "diameter of mitochondria decreased by Spike-EVs plus LDL-c", "setting": "[4]", "result": "could restore"}, {"measurement": "spike-exo induced mitochondrial fusion (mitochondrial morphology)", "setting": "[5]", "result": "can reverse"}]}
{"smiles": "CCOC(=O)c1ccc(NC2CCCCC2)c(N)c1", "note": "[ferrostatin]", "values": [{"measurement": "PA-induced Spike protein-exaggerated lipotoxicity (necrosis, cell viability)", "setting": "[1]; pre-incubated with ferrostatin 2 M 2 h", "result": "significantly mitigated"}, {"measurement": "PA-induced Spike protein-exaggerated lipotoxicity (necrosis, cell viability)", "setting": "[1]; pre-incubated with ferrostatin 2 M 2 h, listed as ferrostatin 1", "result": "can be suppressed"}]}
